Measured values as given in patent publication US11680047B2, “Enhanced erythropoiesis and iron metabolism” (FibroGen, Inc., priority 2003, dated 2023).

Tests used:
NRAMP2 = NRAMP2 mRNA in small intestine of mice after IV administration (microarray); format: in vivo, mouse; settings: 60 mg/kg IV, 4 hours
Experimental: In another experiment, mRNA was isolated from small intestine harvested 4 hours following IV administration of 60 mg/kg compound A, compound B, and compound C to mice. Probes were prepared from each of two animals from 5 treatment groups, and hybridized to Affymetrix mouse MOE430Aplus2 microarrays (one animal per array). Statistical comparisons of data obtained from arrays from treated versus non-treated animals was performed. […] Expression levels are shown as fold-induction over control, untreated animals for each expressed gene.

transferrin receptor [1] = assay: Transferrin receptor expression by FACS (CD71-PE antibody) in HK-2 cells; format: cell-based; settings: HK-2, 1 day
Experimental: (§1) The effect of compounds of the invention on transferrin receptor expression was examined as follows. Various cells (Hep3B, HepG2, HK-2) were incubated with compound A or compound B for 1 day. The cells were then analyzed for transferrin receptor expression by FACS analysis using CD71-PE antibody (Ancell, catalog no. 223-050).

EPO production [2] = assay: Secreted EPO (ELISA) in Hep3B cells treated with IL-6; format: cell-based; settings: for effect of compound treatment on EPO production in the presence of IL-6: compound plus IL-6
Experimental: Secreted EPO levels were determined using a commercially available ELISA kit (R&D Systems, catalog no. DEP00). […] As shown in FIGS. 27A and 27B, Hep3B cells treated with IL-6 increased EPO expression slightly above that in non-treated cells. Specifically, EPO levels in control cells was approximately 20 mIU/ml, while that in cells treated with 10 ng/ml IL-6 was approximately 50 mIU/ml.

EPO production [3] = assay: Secreted EPO (ELISA) in Hep3B cells treated with IL-1β; format: cell-based; settings: for effect on suppression of EPO production by IL-1β: 2-hour pre-treatment with IL-1β, EPO 3 days after compound addition; for effect on inhibition of EPO production by IL-1β: compound in the presence of IL-1β (0.4-10 ng/ml); for effect on inhibition of EPO production by IL-1β / EPO production: 3 days; for EPO production: various concentrations of compound, absence of IL-1β
Experimental: (§2) Hep3B cells were treated with various concentrations (0, 0.4, 2, 10 ng/ml) of IL-1β in the absence or presence of compound A or compound B for 3 days. Secreted EPO levels were determined using a commercially available ELISA kit (R&D Systems, catalog no. DEP00). In the absence of compound, treatment of Hep3B cells with IL-1β reduced EPO production in a dose-dependent manner. […] Therefore, inhibitory effects of the inflammatory cytokine IL-1β on EPO production were overcome by inhibition of prolyl hydroxylase activity using compounds and methods of the present invention. […] Further, the methods and compounds of the present invention are useful to increase EPO production and, therefore, to treat anemia in a subject, for example, wherein the subject has a disorder associated with IL-1β such as acute or chronic inflammation or other anemia of chronic disease.
(§3) A series of experiments were performed to examine the effects of compounds of the present invention on EPO production following exposure of cells to the inflammatory cytokine IL-1β (i.e., in cells already exposed to IL-1β). In these experiments, IL-1β signaling would therefore be initiated prior to the addition of a prolyl hydroxylase inhibitor. Hep3B cells were treated with various concentrations (0, 0.4, 2, 10 ng/ml) of IL-1β for 2 hours, after which various concentrations of compound A or compound B were added to the cultured cells. Secreted EPO levels were determined as described above 3 days following compound addition.

E-selectin = assay: Cell surface E-selectin (cell-based ELISA) in HUVEC pretreated with compound, then cytokines; design: species or system human; settings: HUVEC pretreated 24 hours
Experimental: HUVEC were treated with vehicle control or various concentrations of compound B or compound C for 24 hours. Cells were washed and then stimulated with either 1 ng/ml TNF-α, 1 ng/ml IL-1β, or a combination of 1 ng/ml each of TNF-α, IL-1β, and IFN-γ for 4 hours. Cell surface expression of E-selectin was measured by cell-based ELISA.

transferrin receptor [4] = assay: Transferrin receptor expression by FACS (CD71-PE antibody) in HepG2 cells; format: cell-based; settings: HepG2, 1 day
Experimental: as §1

transferrin receptor [5] = assay: Transferrin receptor expression by FACS (CD71-PE antibody) in Hep3B cells; format: cell-based; settings: 1 day
Experimental: as §1

EPO production [6] = assay: Secreted EPO (ELISA) in Hep3B cells treated with TNF-α; format: cell-based; settings: for effect on suppression of EPO production by TNF-α: 2-hour pre-treatment with TNF-α, EPO 3 days after compound addition; for effect on inhibition of EPO production by TNF-α: compound in the presence of TNF-α (0.4-10 ng/ml); for effect on inhibition of EPO production by TNF-α / EPO production: 3 days; for EPO production: various concentrations of compound, absence of TNF-α
Experimental: as §2, with “ng/ml) of TNF-α in the” for “ng/ml) of IL-1β in the”, “cells with TNF-α reduced EPO” for “cells with IL-1β reduced EPO”, “inflammatory cytokine TNF-α on EPO” for “inflammatory cytokine IL-1β on EPO”, “associated with TNF-αQ such as” for “associated with IL-1β such as”
as §3, with “TNF-α” for “IL-1β”, “TNF-α).” for “IL-1β).”

VCAM-1 = assay: TNF-α induced VCAM-1 expression in HUVEC; format: cell-based, human; settings: TNF-α 1 ng/ml, 1 day
Source text: Endothelial cell adhesiveness for lymphocytes occurs, in part, by endothelial cell expression of vascular cell adhesion molecule (VCAM)-1. VCAM-1 expression in endothelial cells is induced by various inflammatory cytokines, such as TNF-α. To investigate the effect of HIF prolyl hydroxylase inhibition on TNF-α induced VCAM-1 expression, HUVEC (human umbilical vein endothelial cells) were stimulated with TNF-α in the absence or presence of various concentrations of compound B or compound C for 1 day. VCAM expression was then measured.
Endothelial E-selectin belongs to the selectin family of cellular adhesion molecules mediating the initial attachment of leukocytes to vascular endothelial cells in inflammatory events. IL-1β, TNF-α, and lipopolysaccharides each induce the expression of E-selectin. (See, e.g., Bevilacqua et al. (1987) Proc Natl Acad Sci USA 84:9238-9242 and Bevilacqua and van Furth (1993) J Leukoc Biol 54:363-378.) To investigate the effect of HIF prolyl hydroxylase inhibition on TNF-α induced E-selectin expression, HUVECs were stimulated with 1 ng/ml TNF-α in the absence or presence of various concentrations of compound B or compound C for 1 day. E-selectin and VCAM expression were then measured.

[7] = 10 µM compound, absence of IL-6
[8] = compound in the presence of 10 ng/ml IL-6

O=C(O)CNC(=O)c1ncc2cc(Oc3ccccc3)ccc2c1O [Compound B, [(4-Hydroxy-7-phenoxy-isoquinoline-3-carbonyl)-amino]-acetic acid]
NRAMP2 mRNA expression in small intestine (NRAMP2): increasing expression of NRAMP2 in intestine
Mean FL (transferrin receptor) (transferrin receptor [1]): 18.92
EPO levels (EPO production [2]; [7]): ~220 mIU/ml
EPO levels (EPO production [2]; [8]): greater than 400 mIU/ml
effect of compound treatment on EPO production in the presence of IL-6 (EPO production [2]): synergistic
EPO levels (EPO production [2]; compound without IL-6): increased EPO levels in a dose-dependent manner
effect on suppression of EPO production by IL-1β (EPO production [3]): overcame the suppressive effects of IL-1 on EPO production
effect on inhibition of EPO production by IL-1β (EPO production [3]): greatly reduced the inhibitory effects of IL-1β on EPO production
EPO production (EPO production [3]): dose-dependent increase in EPO production
induction of cell surface E-selectin expression (E-selectin; then 1 ng/ml TNF-α or 1 ng/ml IL-1β for 4 hours): inhibited the induction of cell surface E-selectin expression
cell surface E-selectin expression (E-selectin; then TNF-α, IL-1β and IFN-γ, 1 ng/ml each, 4 hours): decreased E-selectin expression
Mean FL (transferrin receptor) (transferrin receptor [4]): 53.53
Mean FL (transferrin receptor) (transferrin receptor [5]): 42.43
effect on suppression of EPO production by TNF-α (EPO production [6]): overcame the suppressive effects of TNF-α on EPO production
effect on inhibition of EPO production by TNF-α (EPO production [6]): greatly reduced the inhibitory effects of TNF-α on EPO production
EPO production (EPO production [6]): dose-dependent increase in EPO production
inhibition of TNF-α induced VCAM-1 expression (VCAM-1): does-dependent inhibition of TNF-α induced VCAM-1 expression

O=C(O)CNC(=O)c1nc(Cl)c2ccccc2c1O [Compound A, [(1-Chloro-4-hydroxy-isoquinoline-3-carbonyl)-amino]-acetic acid]
NRAMP2 mRNA expression in small intestine (NRAMP2): increasing expression of NRAMP2 in intestine
Mean FL (transferrin receptor) (transferrin receptor [1]): 12.20
EPO levels (EPO production [2]; [7]): approximately 60 mIU/ml
EPO levels (EPO production [2]; [8]): approximately 270 mIU/ml
effect of compound treatment on EPO production in the presence of IL-6 (EPO production [2]): synergistic
EPO levels (EPO production [2]; compound without IL-6): increased EPO levels in a dose-dependent manner
effect on suppression of EPO production by IL-1β (EPO production [3]): overcame the suppressive effects of IL-1 on EPO production
effect on inhibition of EPO production by IL-1β (EPO production [3]): greatly reduced the inhibitory effects of IL-1β on EPO production
EPO production (EPO production [3]): dose-dependent increase in EPO production
Mean FL (transferrin receptor) (transferrin receptor [4]): 56.52
Mean FL (transferrin receptor) (transferrin receptor [5]): 40.89
effect on suppression of EPO production by TNF-α (EPO production [6]): overcame the suppressive effects of TNF-α on EPO production
effect on inhibition of EPO production by TNF-α (EPO production [6]): greatly reduced the inhibitory effects of TNF-α on EPO production
EPO production (EPO production [6]): dose-dependent increase in EPO production
